This is an account of results in PMC10291552, “Computational Design, Synthesis, and Biological Evaluation of Diimidazole Analogues Endowed with Dual PCSK9/HMG-CoAR-Inhibiting Activity” (Journal of Medicinal Chemistry, 2023).

Values after ≈ are worked out from the molar mass of the structure shown. Values joined by “and” are separate entries in the source; they are usually repeats but may differ in a detail not shown here. Identical values can stand only once. Like-named read-outs stand apart in the source and are kept apart here.

Data set [1] addresses T1, PCSK9/LDLR (Homo sapiens, UniProt Q8NBP7).
T1 construct: purchased CircuLex (CycLex Co., Nagano, Japan)
The following applies: cited from earlier work.

In data set [2] the target is T2, HMG-CoAR (catalytic domain) (Homo sapiens, UniProt P04035).
T2 construct: and finally, HMG-CoAR (catalytic domain) (2 μL); purchased Sigma Aldrich
T2 sequence (P04035 426-888 limits assumed): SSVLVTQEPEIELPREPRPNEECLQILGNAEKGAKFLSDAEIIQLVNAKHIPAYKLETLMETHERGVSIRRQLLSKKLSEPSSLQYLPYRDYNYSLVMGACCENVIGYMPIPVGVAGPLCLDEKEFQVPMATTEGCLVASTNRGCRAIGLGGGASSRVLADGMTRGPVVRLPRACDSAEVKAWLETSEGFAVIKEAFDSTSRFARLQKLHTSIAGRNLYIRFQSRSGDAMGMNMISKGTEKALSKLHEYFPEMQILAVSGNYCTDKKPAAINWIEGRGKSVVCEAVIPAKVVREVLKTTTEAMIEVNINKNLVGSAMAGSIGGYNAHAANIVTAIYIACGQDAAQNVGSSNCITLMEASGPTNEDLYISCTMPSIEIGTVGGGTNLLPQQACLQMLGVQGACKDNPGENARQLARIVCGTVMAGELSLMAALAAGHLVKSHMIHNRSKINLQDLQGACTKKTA
Further details: method as in doi:10.1016/j.jff.2017.02.009. To be noted: cited from earlier work.

The target in data set [3] is T1, PCSK9/LDLR. As to the kind of experiment: In vitro PCSK9-LDLR binding assay (CircuLex/CycLex kit). To be noted: for IC50: mean ± SD, three independent experiments, Hill slope fixed at −1. As to the method: Diimidazole analogues (0.1–1 × 10^6 nM) were tested using the in vitro PCSK9-LDLR binding assay (CycLex Co., Nagano, Japan) following the manufacturer’s instructions and with the conditions already optimized.[15] Briefly, the plates were pre-coated with a recombinant LDLR-AB domain containing the binding site of PCSK9. Before starting the assay, the tested analogues and/or the vehicle in DMSO were sonicated at 37 °C, diluted in the reaction buffer, and added in microcentrifuge tubes. Afterward, the reaction mixtures were added in each well of the microplate, and the reaction was started by adding His-tagged PCSK9 solution (3 μL). The microplate was allowed to incubate for 2 h at room-temperature (RT) shaking at 300 rpm on an orbital microplate shaker. Subsequently, the wells were washed 4 times with the wash buffer. After the last wash, the biotinylated anti-His-tag monoclonal antibody (100 μL) was added and incubated at RT for 1 h shaking at 300 rpm. After incubation, the wells were washed 4 times with wash buffer. After the last wash, 100 μL of HRP-conjugated streptavidin were added, and the plate was incubated for 20 min at RT. After incubation, the wells were washed 4 times with wash buffer. Finally, the substrate reagent (tetra-methylbenzidine) was added, and the plate was incubated for 10 min at RT shaking at ca. 300 rpm. The reaction was stopped with 2.0 M sulfuric acid, and the absorbance at 450 nm was measured using a Synergy H1 fluorescent plate reader (Winooski, VT, USA).
All the data sets were checked for normal distribution by D’Agostino and Pearson tests. Since they are all normally disturbed with p values of […], we proceeded with statistical analyses of one-way ANOVA followed by Tukey’s post hoc test using Graphpad Prism 9 (San Diego, CA, USA). Values were reported as means ± s.d.; p values of <0.05 were considered to be significant. The IC50 values of samples inhibiting PCSK9-LDLR binding were evaluated by using the log(inhibitor) vs response model of GraphPad Prism 9 (San Diego, CA, USA). This model assumes that the dose–response curves has a standard slope, equal to a Hill slope (or slope factor) of −1.0. This is the slope expected when a ligand binds to a receptor following the law of mass action and is the slope expected of a dose–response curve when the second messenger created by receptor stimulation binds to its receptor by the law of mass action (https://graphpad.com/guides/prism/latest/curvefitting/reg_dr_inhibit.htm).

Data set [4] concerns the target T2, HMG-CoAR (catalytic domain). As to the kind of experiment: HMG-CoAR activity assay (Sigma kit, NADPH oxidation at 340 nm). The following applies: 10–500 μM tested, 37 °C. Format: biochemical. As to the method:
The experiments were carried out following the manufacturer’s instructions and optimized protocol.[43] The assay buffer, NADPH, substrate solution, and HMG-CoAR were provided in the HMG-CoAR Assay Kit (Sigma Aldrich SRL, Milan, Italy). The experiments were carried out following the manufacturer’s instructions at 37 °C. In particular, each reaction (200 μL) was prepared adding the reagents in the following order: 1× assay buffer, a 10–500 μM dose of sonicated Dim analogues or vehicle (C), NADPH (4 μL), the substrate solution (12 μL), and finally, HMG-CoAR (catalytic domain) (2 μL). Subsequently, the samples were mixed, and the absorbance at 340 nm was read by a microplate reader (Synergy H1, Winooski, VT, USA) at times of 0 and 10 min. The HMGCoAR-dependent oxidation of NADPH and the inhibition properties of the peptides were measured by absorbance reduction, which is directly proportional to enzyme activity.

The next data set can be described thus: Solubility in PBS pH 7.4. The class given is physicochemical. To be noted: PBS buffer, pH 7.4, PBS, 37 °C. As to the method:
Solubility was tested after incubation of the test item at 200 μM and 500 μM in PBS buffer pH 7.4 starting from an initial DMSO solution of Dim22 100 mM. Samples in duplicates were incubated at 37 °C for 90 min, were then centrifuged at 12500 rpm for 5 min. Supernatants were analyzed in LC/MS together with a solution of the compound in ACN.

Data set [5] can be described thus: Metabolic stability in human liver microsomes (with UDPGA). To be noted: for Cli: human liver microsomes 0.5 mg/mL, 5 μM, cofactors + UDPGA (Phase II stability). Background: Liver microsomes are vesicles of endoplasmic reticulum, rich in cytochrome P450 enzymes.
Description: (§1) After the pre-incubation period, the reaction was started by adding the cofactor mixture (NADP, Glc6P, and Glc6P-DH in 2% sodium bicarbonate) and UDPGA. Samples (25 μL) were taken at times of 0, 10, 20, 30, 45, and 60 min and then mixed with 150 μL of ACN to stop the reaction. After centrifugation, the supernatants were analyzed by LC–MS/MS. A control sample without cofactors was included in the assay in order to check the stability of the test compounds in the matrix after 60 min. 7-Ethoxycoumarin (7-EC) and 7-hydroxycoumarin (7-OHC) were contemporarily tested as reference standards for the Phase I and Phase II reactions, respectively.
Data set [6] can be described thus: Metabolic stability in mouse liver microsomes (with UDPGA). The following applies: for Cli: mouse liver microsomes 0.5 mg/mL, 5 μM, cofactors + UDPGA (Phase II stability).
Description: as §1

T1 sequence (Q8NBP7 153-692): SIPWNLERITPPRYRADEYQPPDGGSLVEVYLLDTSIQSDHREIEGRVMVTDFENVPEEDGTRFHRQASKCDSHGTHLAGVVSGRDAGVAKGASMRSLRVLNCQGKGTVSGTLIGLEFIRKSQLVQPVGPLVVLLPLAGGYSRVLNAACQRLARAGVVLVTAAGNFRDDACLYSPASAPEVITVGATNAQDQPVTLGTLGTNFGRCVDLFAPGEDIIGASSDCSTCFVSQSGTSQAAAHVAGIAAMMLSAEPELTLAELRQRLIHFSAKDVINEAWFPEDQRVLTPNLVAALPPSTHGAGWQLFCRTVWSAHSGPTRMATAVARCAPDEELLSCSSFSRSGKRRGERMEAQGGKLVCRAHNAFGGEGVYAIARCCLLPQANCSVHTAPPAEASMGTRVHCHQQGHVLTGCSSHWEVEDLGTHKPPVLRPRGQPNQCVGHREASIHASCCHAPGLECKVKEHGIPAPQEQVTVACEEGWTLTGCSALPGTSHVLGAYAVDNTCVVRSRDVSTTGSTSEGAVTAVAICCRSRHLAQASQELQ
T1 sequence (Q8NBP7 31-152 limits assumed): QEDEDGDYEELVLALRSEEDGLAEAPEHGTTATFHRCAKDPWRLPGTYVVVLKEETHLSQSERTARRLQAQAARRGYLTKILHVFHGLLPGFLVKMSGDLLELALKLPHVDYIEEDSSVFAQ

As to “LILPKHSDAD [P5, peptide P5 derived from lupin proteins]”, the IC50 was 1600 nM with PCSK9/LDLR [1] (read-out: PCSK9/LDLR PPI IC50) and 147000 nM in data set [2].

Take `CNCCCCCn1c(-c2ncc(-c3ccc4ccccc4c3)n2CC2CCCCC2)cnc1I` [Dim22, 5-(1-(Cyclohexylmethyl)-2′-iodo-5-(naphthalen-2-yl)-1H,3′H-[2,4′-biimidazol]-3′-yl)-N-methylpentan-1-amine]: the IC50 on PCSK9/LDLR [3] turned out to be 1990 ± 2860 nM; in data set [4], 36200 ± 5980 nM. For the same molecule, in “Solubility in PBS pH 7.4”, the solubility (as a rule, how much of the substance goes into solution per volume) at 90 min was approximately 10 µM (≈ 5.82 µg/mL). The molecule also showed a solubility at 1.5 h in “Solubility in PBS pH 7.4” (90 min) of 5.8 µg/mL (≈ 9.97 µM). In addition, the Cli in data set [5] was found to be 51.5 μL/min/mg protein; in data set [6] it was 57.0 μL/min/mg protein. For the same molecule, the clearance classification result is on record as “medium–high” in data set [5] (human liver microsomes, classification of Table S4) and “medium–high” in data set [6] (mouse liver microsomes, classification of Table S4). Further, the “non-NADPH-dependent part of the observed metabolism” value in data set [5] (humans) is 50%. For the same molecule, the “NADPH dependence of the observed metabolism” value in data set [6] (mice) was “NADPH-dependent”.

`CNCCCCCn1cncc1-c1nc(-c2ncc(-c3ccc(OC)cc3)n2C)cn1CCc1ccccc1` [RIm14]: the “affinity with PCSK9” value at PCSK9/LDLR [1] (in words) was “low micromolar affinity”.

For the molecule `O=c1ccc2ccc(O)cc2o1` [7-OHC, 7-hydroxycoumarin, reference compound], the figures for the Cli in data set [5] and in data set [6] were 390.0 μL/min/mg protein and 533.3 μL/min/mg protein, respectively.

Regarding `C#Cc1ncc(-c2ncc(-c3ccc4ccccc4c3)n2CC2CCCCC2)n1CCCCCNC` [Dim23, 5-(1-(Cyclohexylmethyl)-2′-ethynyl-5-(naphthalen-2-yl)-1H,3′H-[2,4′-biimidazol]-3′-yl)-N-methylpentan-1-mine], the IC50 at PCSK9/LDLR [3] worked out at 1180 ± 1060 nM. In data set [4], the “HMG-CoAR activity IC50” value is “not active”.

Regarding `CNCCCCCn1cncc1-c1ncc(-c2ccc3ccccc3c2)n1CCCC(C)(C)C` [Dim2, 5-(1-(4,4-Dimethylpentyl)-5-(naphthalen-2-yl)-1H,3′H-[2,4′-biimidazol]-3′-yl)-N-methylpentan-1-amine], the IC50 at PCSK9/LDLR [3] was 1990 ± 1650 nM; in data set [4] it was 40500 ± 15200 nM. Moreover, at PCSK9/LDLR [3] (ratio versus Dim16), the “PCSK9 activity, times less active than Dim16” value was “about 2500”.

With `CNCCCCCn1cncc1-c1nc(-c2ncc(-c3ccc(OC)cc3)n2C)cn1Cc1ccccc1` [Rim13], at PCSK9/LDLR [1] (in words), the “affinity with PCSK9” value is “low micromolar affinity”. Also, the IC50 at PCSK9/LDLR [1] (read-out: PCSK9/LDLR interaction IC50) is 1600 nM and ~1000 nM.

As to `CCOc1ccc2ccc(=O)oc2c1` [7-EC, 7-Ethoxycoumarin, reference compound], the Cli in data set [5] was 46.1 μL/min/mg protein; in data set [6], 290.9 μL/min/mg protein.

Regarding `Cn1cnc(-c2ncc(-c3nc(-c4ncc(-c5ccccc5)n4C)cn3C)n2C)c1` [MeIm], the “IC50 value (PCSK9–LDLR interaction)” value on PCSK9/LDLR [1] (in words) was “low-micromolar range”.

Consider `CNCCCCCn1cncc1-c1ncc(-c2ccc3ccccc3c2)n1CC1CCCCC1` [Dim21, 5-(1-(Cyclohexylmethyl)-5-(naphthalen-2-yl)-1H,3′H-[2,4′-biimidazol]-3’-yl)-N-methylpentan-1-amine], for which the IC50 came to 4500 ± 500 nM at PCSK9/LDLR [3] and 38400 ± 12700 nM in data set [4].
